This data set is described as follows: Solubility in water at room temperature and pressure (general statement). It is filed as physicochemical.

This note sets out measurements from US20210059282A1, “Process for Spray Drying Fucosyllactose Solutions and Related Product Compositions” (DUPONT NUTRITION BIOSCIENCES APS, priority 2018, published 2021).

As to `CC1OC(OC2C(OC3C(CO)OC(O)C(O)C3O)OC(CO)C(O)C2O)C(O)C(O)C1O` (stereo not shown) [2′-FL, 2′-fucosyllactose], the Solubility in water result is listed as “soluble in water”.
